In article PMC11360180, “Enhancement of Antimicrobial Function by L/D-Lysine Substitution on a Novel Broad-Spectrum Antimicrobial Peptide, Phylloseptin-TO2: A Structure-Related Activity Research Study” (Pharmaceutics, 2024):
Where a SMILES comes first, the peptide text is derived from it. Where no end group is shown, it is not given here. [ ]: non-standard residue; d: D form.

How the values were obtained:
[1] = system: HaCat; format: cell-based; conditions: 24 h
Experimental: (§1) The percentage of cancer cell survival after being treated with peptides was assessed with 3-(4,5-dimethylthiazol-2-yl-)-2,5-diphenyltetrazolium bromide (MTT). The principle is the reduction process of the yellow tetrazolium to DMSO-soluble formazan crystals caused by the metabolic capability of living cells. All the cancerous and normal cells were obtained from the American Type Culture Collection (Rockville, VA, USA). Human lung cancer NCI-H838 and NCI-H460 were cultured in Roswell Park Memorial Institute (RPMI)-1640 medium (Gibco, Paisley, UK) and mixed with 10% (v/v) fetal bovine serum (FBS) (Gibco, Campinas, Brazil) and 1% penicillin–streptomycin (Gibco, Grand Island, NY, USA) 89/10/1 v/v/v). U251MG and MCF-7 were cultured in Dulbecco’s Modified Eagle medium (DMEM) (Gibco, Paisley, UK) and mixed with 10% FBS and 1% penicillin–streptomycin. HCT 116 was cultured in McCoy’s 5A (modified) medium (Gibco, Paisley, UK) and mixed with 10% FBS and 1% penicillin–streptomycin. MRC-5 and HaCat were cultured in Minimum Essential Medium (MEM) (Gibco, Paisley, UK) and mixed with 10% FBS and 1% penicillin–streptomycin. Cells were cultured and seeded in a 96-well plate at a density of 8000 cells/well with the corresponding medium and incubated for 24 h at 37 °C with 5% CO2. After 24 h of incubation, the cells were starved with a serum-free medium for 4 h at 37 °C. Then, the cells were incubated with different concentrations of peptide solution in a serum-free medium from 1 nM to 100 µM at 37 °C for 24 h. Meanwhile, triton X-100 (0.1%) (Sigma-Aldrich, St. Louis, MO, USA) and PBS were chosen as positive and negative controls. After 10 µL of MTT (5 mg/mL) was added to each well away from light and incubated at 37 °C for 2 h, the formazan generated by mitochondria was dissolved with DMSO. The absorbance was detected at a wavelength of 570 nm by a Synergy HT plate reader (Bio-Tek, Shoreline, WA, USA).

[2] = system: MRC-5; format: cell-based; conditions: 24 h
Experimental: as §1

[3] = system: S. aureus (ATCC 6538); format: cell-based, Staphylococcus aureus; conditions: ATCC 6538, 24 h
From the text: Seven microorganism strains were used to preliminarily evaluate the antimicrobial activity of PSTO2 and its analogues, including Staphylococcus aureus (S. aureus) (ATCC® 6538), methicillin-resistant Staphylococcus aureus (MRSA) (NCTC® 12493), Enterococcus faecalis (E. faecalis) (NCTC® 12697), E. coli (ATCC® 8739), Klebsiella pneumonia (K. pneumonia) (ATCC® 43816), Pseudomonas aeruginosa (P. aeruginosa) (ATCC® CRM 9027), Acinetobacter baumanni (A. baumanni) (BAA® 747), and Candida albicans (C. albicans) (ATCC® 10231). In this study, the strains were cultured in Mueller–Hinton broth (MHB), nutrient broth (NB), and yeast–peptone–dextrose broth (YPD-B) correspondingly at 37 °C, with shaking at 120 rpm. Each peptide was dissolved from 128 μM to 1 μM and mixed with the bacterium at 5 × 10^5 CFU/mL. […]
After being incubated for 24 h, a Synergy HT plate reader (Bio-Tek, Shoreline, WA, USA) was used to detect the absorbance of each well in the 96-well plate at λ = 550 nm. The concentration at which no visible turbidity could be recorded was the MIC value. […] The plate was checked the next day for colony formation, and the lowest concentration at which no colony growing was recorded as an MBC value. […]

With CC[C@H](C)[C@H](NC(=O)[C@H](C)NC(=O)[C@@H](CCCCN)NC(=O)[C@@H]1CCCN1C(=O)[C@@H](NC(=O)[C@H](CC(C)C)NC(=O)[C@H](CO)NC(=O)[C@H](CC(C)C)NC(=O)[C@@H](N)Cc1ccccc1)[C@@H](C)CC)C(=O)N[C@@H](CCCCN)C(=O)N[C@@H](C)C(=O)N[C@H](C(=O)N[C@@H](CCCCN)C(=O)N[C@@H](C)C(=O)N[C@@H](CC(C)C)C(=O)N[C@@H](C)C(=O)N[C@@H](CCCCN)C(=O)N[C@H](CCCCN)C(=O)N[C@@H](CC(C)C)C(N)=O)C(C)C [SR2D10] (H-FLSLIP[dK]AIKAVKALAK[dK]L-NH2) the IC50 [1] was 84.03 µM and the IC50 [2] was 74.39 µM.

Work on FLSLIPKAIKAVSALAKKL-NH2 [SR] yielded an IC50 [1] of 4.13 µM and an IC50 [2] of 6.98 µM.

For FLSLIPKAIKAVKALAKKL-NH2 [SR2], the MBC [3] was 2 µM, the MIC [3] was 2 µM and the IC50 [1] was 3.48 µM. For the same molecule, the IC50 [2] was 6.56 µM.

For CC[C@H](C)[C@H](NC(=O)[C@H](C)NC(=O)[C@@H](CCCCN)NC(=O)[C@@H]1CCCN1C(=O)[C@@H](NC(=O)[C@H](CC(C)C)NC(=O)[C@H](CO)NC(=O)[C@H](CC(C)C)NC(=O)[C@@H](N)Cc1ccccc1)[C@@H](C)CC)C(=O)N[C@@H](CCCCN)C(=O)N[C@@H](C)C(=O)N[C@H](C(=O)N[C@@H](CO)C(=O)N[C@@H](C)C(=O)N[C@@H](CC(C)C)C(=O)N[C@@H](C)C(=O)N[C@@H](CCCCN)C(=O)N[C@@H](CCCCN)C(=O)N[C@@H](CC(C)C)C(N)=O)C(C)C [SRD7] (H-FLSLIP[dK]AIKAVSALAKKL-NH2), the IC50 [1] was 77.89 µM and the IC50 [2] was 77.28 µM.
